From ChEMBL document CHEMBL1201862, “PubChem BioAssay data set” (2004)
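Results reflect a 48-hour exposure of cells in 96-well plates to compound at five concentrations. The concentration for 50% growth inhibition is given as GI50.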 Activity calls are given as the source filed them. Rule as the data show it: active = GI50 up to about 1.1 µM and inactive = higher.

Tests used:
Assay in all cases: growth of human tumour cells (NCI), 48 h
M14 = test system: M14
MDA-N = test system: MDA-N
Hs-578T = test system: Hs-578T
SNB-75 = test system: SNB-75
UO-31 = test system: UO-31
BT-549 = test system: BT-549
UACC-62 = test system: UACC-62
IGROV-1 = test system: IGROV-1
COLO 205 = test system: COLO 205
SF-295 = test system: SF-295
K562 = test system: K562
UACC-257 = test system: UACC-257
DU-145 = test system: DU-145
ACHN = test system: ACHN
786-0 = test system: 786-0
SK-MEL-5 = test system: SK-MEL-5
Malme-3M = test system: Malme-3M
CAKI-1 = test system: CAKI-1
RPMI-8226 = test system: RPMI-8226

Row | SMILES | GI50 (M14) | GI50 (MDA-N) | GI50 (Hs-578T) | GI50 (SNB-75) | GI50 (UO-31) | GI50 (BT-549) | GI50 (UACC-62) | GI50 (IGROV-1) | GI50 (COLO 205) | GI50 (SF-295) | GI50 (K562) | GI50 (UACC-257) | GI50 (DU-145) | GI50 (ACHN) | GI50 (786-0) | GI50 (SK-MEL-5) | GI50 (Malme-3M) | GI50 (CAKI-1) | GI50 (RPMI-8226)
1 | CC(C)C(O)(C(C)C)C(C)C | > 100 µM (inactive) | > 100 µM (inactive) | > 100 µM (inactive) | > 100 µM (inactive) | > 100 µM (inactive) | > 100 µM (inactive) | > 100 µM (inactive) | > 100 µM (inactive) | > 100 µM (inactive) | > 100 µM (inactive) | > 100 µM (inactive) | > 100 µM (inactive) | > 100 µM (inactive) | > 100 µM (inactive) | > 100 µM (inactive) | > 100 µM (inactive) | > 100 µM (inactive) | > 100 µM (inactive) | > 100 µM (inactive)
2 | S=C(Nc1c2c(nc3ccccc13)CCCC2)Nc1c2c(nc3ccccc13)CCCC2 | > 100 µM (inactive) | > 100 µM (inactive) | > 100 µM (inactive) | > 100 µM (inactive) | > 100 µM (inactive) | > 100 µM (inactive) | > 100 µM (inactive) | > 100 µM (inactive) | > 100 µM (inactive) | > 100 µM (inactive) | > 100 µM (inactive) | > 100 µM (inactive) | > 100 µM (inactive) | > 100 µM (inactive) | > 100 µM (inactive) | > 100 µM (inactive) | > 100 µM (inactive) | > 100 µM (inactive) | > 100 µM (inactive)
3 | S=C(N/N=C/c1ccccn1)N1CCCCC1 | < 0.01 µM (active) | 0.271 µM (active) | 0.902 µM (active) | 0.0315 µM (active) | 0.0131 µM (active) | 0.0249 µM (active) | 0.0497 µM (active) | < 0.01 µM (active) | < 0.01 µM (active) | 0.121 µM (active) | < 0.01 µM (active) | < 0.01 µM (active) | 0.243 µM (active) | < 0.01 µM (active) | < 0.0137 µM (active) | < 0.0198 µM (active) | < 0.0397 µM (active) | < 0.0153 µM (active) | < 0.01 µM (active)
4 | COc1ccc(C2SC(=N)Nc3c2c(C)nn3C(=O)c2ccncc2)cc1OC (stereo not given) | > 10 µM (inactive) | > 10 µM (inactive) | > 10 µM (inactive) | > 10 µM (inactive) | – | > 10 µM (inactive) | > 10 µM (inactive) | > 10 µM (inactive) | > 10 µM (inactive) | > 10 µM (inactive) | > 10 µM (inactive) | > 10 µM (inactive) | > 10 µM (inactive) | > 10 µM (inactive) | > 10 µM (inactive) | > 10 µM (inactive) | > 10 µM (inactive) | > 10 µM (inactive) | > 10 µM (inactive)
5 | CC(C)N1C=[N+](C(C)C)CC1 | > 100 µM (inactive) | > 100 µM (inactive) | > 100 µM (inactive) | > 100 µM (inactive) | > 100 µM (inactive) | > 100 µM (inactive) | – | > 100 µM (inactive) | > 100 µM (inactive) | > 100 µM (inactive) | > 100 µM (inactive) | > 100 µM (inactive) | > 100 µM (inactive) | > 100 µM (inactive) | > 100 µM (inactive) | > 100 µM (inactive) | > 100 µM (inactive) | > 100 µM (inactive) | > 100 µM (inactive)
6 | CC(=O)O[C@H]1C(=O)[C@@]2(C)[C@H]([C@H](OC(=O)c3ccncc3)[C@]3(O)C[C@H](OC(=O)[C@H](O)[C@@H](NC(=O)c4ccccc4)c4ccccc4)C(C)=C1C3(C)C)[C@]1(OC(C)=O)CO[C@@H]1C[C@@H]2O | 7.06 µM (inactive) | 0.877 µM (active) | 1.22 µM (inactive) | 3.56 µM (inactive) | > 25 µM (inactive) | 14.5 µM (inactive) | 2.66 µM (inactive) | 2.44 µM (inactive) | 2.08 µM (inactive) | > 16.9 µM (inactive) | 0.953 µM (active) | 8.3 µM (inactive) | 11.6 µM (inactive) | > 22.3 µM (inactive) | 6.81 µM (inactive) | 2.3 µM (inactive) | 2.31 µM (inactive) | > 25 µM (inactive) | 0.881 µM (active)
7 | CCOc1ccc(/C=N/[N+](C)(C)C)cc1OCC | > 10 µM (inactive) | > 10 µM (inactive) | > 10 µM (inactive) | > 10 µM (inactive) | – | > 10 µM (inactive) | > 10 µM (inactive) | > 10 µM (inactive) | > 10 µM (inactive) | > 10 µM (inactive) | > 10 µM (inactive) | > 10 µM (inactive) | > 10 µM (inactive) | > 10 µM (inactive) | > 10 µM (inactive) | > 10 µM (inactive) | > 10 µM (inactive) | > 10 µM (inactive) | > 10 µM (inactive)
